Literature values as cited in PMC2716802 (Structure (London, England : 1993), 2008).
No end group written: not given here.

Biological target: BoNT/A LC (Clostridium botulinum, UniProt P0DPI0)
Sequence (P0DPI0 2-448 limits assumed): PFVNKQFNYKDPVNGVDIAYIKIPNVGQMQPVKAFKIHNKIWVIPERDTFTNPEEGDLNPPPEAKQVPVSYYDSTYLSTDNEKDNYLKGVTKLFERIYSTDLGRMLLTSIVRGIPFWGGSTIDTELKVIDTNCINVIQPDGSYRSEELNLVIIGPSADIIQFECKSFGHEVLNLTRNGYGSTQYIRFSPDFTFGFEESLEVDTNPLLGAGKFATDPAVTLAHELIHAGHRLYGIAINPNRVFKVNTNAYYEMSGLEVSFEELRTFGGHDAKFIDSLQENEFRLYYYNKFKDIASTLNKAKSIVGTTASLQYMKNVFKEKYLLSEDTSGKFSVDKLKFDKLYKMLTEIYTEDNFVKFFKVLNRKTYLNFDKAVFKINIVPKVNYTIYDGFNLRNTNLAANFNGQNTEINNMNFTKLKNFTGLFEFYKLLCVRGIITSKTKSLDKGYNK

Which Ki does the source give for Ac-CRATKML here?
The Ki was 1.9 µM.
